System: prostate cancer epithelial cells
Assay: Stromal-epithelial co-culture: PSC27 extracellular fluid on proliferation, migration, invasion of prostate cancer epithelial cells
Assay type: cell-based, human
Conditions: extracellular fluid of bleomycin-damaged PSC27 treated with TAK1 inhibitor
Method: c. Experimental Treatment In Vitro • 100 nM docetaxel (DTX), 100 nM paclitaxel (PTX), 200 nM vincristine (VCR), 50 μg/ml bleomycin (BLEO), 1 μM mitoxantrone (MIT), or 10 Gy ^137CS ionizating radiation (γ-radiation at 743 rad/min, RAD) was added to the culture medium when PSC27 cells grown to 80% (PSC27-Pre) to produce cell damage. After drug treatment for 6 hours, the cells were simply washed by PBS for 3 times and kept in the culture medium for 7 to 10 days, followed by subsequent experiments. 2. Plasmid Preparation and Lentiviral Transfection • Full-length human IKKα and Flag were cloned as a fusion protein between the restriction sites BamHI and XbaI in the expression vector pCR3.1. Full-length human mTOR and GST were cloned as a fusion protein between a pair of NotI restriction sites in the expression vector pcDNA3. Packaging cell line 293FT was used for cell transfection and lentivirus production. The sequences of small hairpin RNAs (shRNAs) for knocking out TRAF6 were as follows: • 5′-[…]-3′(SEQ ID NO: 1); and • 5′-[…]-3′ (SEQ ID NO: 2). • The sequences of small hairpin RNAs (shRNAs) for knocking out TAK1 were as follows: • 5′-[…]-3′(SEQ ID NO: 3); and • 5′-[…]-3′(SEQ ID NO: 4). • The sequences of small hairpin RNAs (shRNAs) for knocking out IL-1α were as follows: • 5′-[…]-3′(SEQ ID NO: 5); and • 5′-[…]-3′ (SEQ ID NO: 6). 3. Immunofluorescence and Histochemical Analysis • Mouse monoclonal antibody anti-phospho-Histone H2A.X (Ser139) (clone JBW301, Millipore) or mouse monoclonal antibody anti-Phosphor-53BP1 (Cat #sc-135748, Santa Cruz), and secondary antibody Alexa Fluor® 488 (or 594)-conjugated F(ab′)2 were added sequentially to slides on which cells were fixed. […] FV1000 laser scanning confocal microscopy (Olympus) was used to obtain cellular confocal fluorescence images to determine the extent of DNA damage. • Antibody anti-TAK1 used for histological IHC staining in clinical prostate, non-small cell lung cancer patients and breast cancer patients, was purchased from Proteintech, idib. […] Quantitative PCR for Measuring Gene Expression […]

With COc1cc(O)c2c(c1)/C=C/C[C@H](O)[C@H](O)C(=O)/C=C\C[C@H](C)OC2=O [5Z-7, 5z-7-oxozeaenol] the “in vitro migration of prostate cancer epithelial cells promoted by stromal cell extracellular fluid” value was “significantly reduced”, the “invasion of prostate cancer epithelial cells promoted by stromal cell extracellular fluid” value was “significantly weakened” and the “proliferation of prostate cancer epithelial cells promoted by stromal cell extracellular fluid” value was “decreased significantly”.

— patent US11344601B2, “Tumor microenvironment-related target TAK1 and application thereof in inhibition of tumor” (Shanghai Institutes for Biological Sciences, Chinese …, priority 2017, dated 2022)
